# Reference: the NIST ThermoML archive (doi:10.1016/j.jct.2011.09.008)
# Numbers after ± are expanded uncertainties.
# Columns and labels:
# [1] = 101 kPa, Liquid, Sing-around technique in a fixed-path interferometer
# [2] = xn = mol fraction of the nth substance listed; conditions: 283.15 K; 101 kPa; Liquid; Sing-around technique in a fixed-path interferometer; x2 = 0
speed of sound ([1]; 283.15 K),speed of sound ([1]; 288.15 K),speed of sound ([1]; 293.15 K),speed of sound ([1]; 298.15 K),speed of sound ([1]; 303.15 K),speed of sound [2],Compound
1301.9 ± 1.5 m/s,1283.2 ± 1.5 m/s,1264.5 ± 1.5 m/s,1245.8 ± 1.5 m/s,1227.3 ± 1.5 m/s,,CCCOCC(C)O (stereo unspecified) [1-propoxy-2-propanol]
,,,,,1447.3 ± 1.2 m/s,O [water] + CCCOCC(C)O
